# Patent publication US9932300B2, “N,N′-diarylurea compounds and N,N′-diarylthiourea compounds as inhibitors of translation initiation” (President and Fellows of Harvard College, priority 2009, dated 2018)
# Peptide text beside a SMILES is read from it.
# System: eIF2-GTP-Met-tRNAi ternary complex
# Experiment: Ternary complex assay (dual luciferase, firefly/renilla ratio) in stable KLN-tTA/pBISA-DL(ATF-4) cells; HTS and hit confirmation
# Format: cell-based, mouse
# Conditions: KLN-tTA/pBISA-DL(ATF-4) colonies, assay validation
row,Molecule,Effect on firefly/renilla luciferase ratio
1,"COc1cc([C@@H]2c3cc4c(cc3[C@@H](O[C@@H]3O[C@@H]5CO[C@@H](C)O[C@H]5[C@H](O)[C@H]3O)[C@H]3COC(=O)[C@H]23)OCO4)cc(OC)c1O [etoposite, reference compound]",no effect
2,"C/C=C(/C)C(=O)O[C@H]1C(C)=C2[C@H]([C@@H]1OC(=O)CCCCCCC)[C@@](C)(OC(C)=O)C[C@H](OC(=O)CCC)[C@@]1(O)[C@H]2OC(=O)[C@@]1(C)O [thapsigargin, reference compound]",increase in the ratio of firefly activity relative to renilla activity
3,tunicamycin [reference compound],increase in the ratio of firefly activity relative to renilla activity

# System: eIF2-GTP-Met-tRNAi ternary complex
# Experiment: Ternary complex / ATF-4 dual luciferase assay in human cancer cell lines co-transfected with tTA and pBISA-DL(ATF-4) (CRL-2351, PC-3, CRL-2813)
# Format: cell-based
# Conditions: CRL-2351 cell line
# Procedure: FIGS. 8A-8D depict that N,N′-diarylureas reduce the availability of the eIF2-GTP-Met-tRNAi ternary complex in human cancer cells. A-C) PC-3, CR-L2351, and CRL-2813 human cancer cell lines were co-transfected with pBISA-DL^(ATF-4) and ptTA plasmids. One day post-transfection, the cells were treated with the indicated concentrations of N,N′-diarylureas. Firefly/renilla ratio was determined by DLR assay 8 hours after treatment. D) PC-3, CR-L2351, and CRL-2813 human cancer cell lines were treated with the indicated concentrations of N,N′-diarylureas four 8 hours, and expression of endogenous CHOP mRNA was determined by real-time PCR.
# For example, reducing amount of the ternary complex increases translation of ATF-4, which results in elevated expression of CHOP mRNA and protein. Therefore, expression of endogenous CHOP mRNA and CHOP protein in KLN-tTA/pBISA-DL^(ATF-4) cells were utilized as secondary assays to validate N,N′-diarylurea compounds as modifiers of the eIF2⋅GTP⋅Met-tRNAi ternary complex. […] To rule out the possibility that the activity of N,N′-diarylurea compounds was confined to a single cell type, the effects of these compounds on the ternary complex assay and the expression of CHOP mRNA was assayed in CRL-2351, PC-3, CRL-2813 human breast, prostate, and melanoma cancer cell lines respectively. For the reporter gene assay, the three human cell lines were co-transfected with tTA expression vector and the pBISA-DL^(ATF-4) dual luciferase expression vector shown in FIG. 6. […] The expression of CHOP mRNA was assayed by real time PCR in the same cell lines treated with 5 or 20 μM of each compound. […]
# Stable and transient transfection: Cells were seeded at the density of 10^5 in 60-mm (stable transfection) or 10^4 cells per well of 96-well plate (transient transfection) plates and transfected one day later using the Qiagen Transfectamine transfection kit. For selection of stable cell lines, transfected cells were transferred to 100-mm plates and selected with appropriate antibiotics.
# Dual luciferase assay: Cells or minced tumors expressing firefly and renilla luciferases were lysed and the extracts assayed with a glow type dual luciferase assay kit, per manufacturer's instruction (Promega Inc., Madison, Wis.).
row,Molecule,ATF-4 Cmax (concentration corresponding to the maximal activity)
1,"O=C(Nc1ccc(Cl)c(Cl)c1)Nc1ccc(Cl)c(Cl)c1 [Compound 1, 1,3-bis(3,4-dichlorophenyl)urea]",5 µM
2,"O=C(Nc1ccc(Cl)c(C(F)(F)F)c1)Nc1ccc(Cl)c(C(F)(F)F)c1 [Compound 2, 1,3-bis[4-chloro-3-(trifluoromethyl)phenyl]urea]",2.4 µM
3,"O=C(Nc1cc(C(F)(F)F)cc(C(F)(F)F)c1)Nc1cc(C(F)(F)F)cc(C(F)(F)F)c1 [Compound 3, 1,3-bis[3,5-bis(trifluoromethyl)phenyl]urea]",2.5 µM
4,"Cc1ccc(NC(=O)Nc2ccc(Cl)c(Cl)c2)cc1O [Compound 4, 3-(3,4-dichlorophenyl)-1-(3-hydroxy-4-methylphenyl)urea]",20 µM
5,"Cc1ccc(NC(=O)Nc2ccc(Cl)c(C(F)(F)F)c2)cc1O [Compound 5, 3-[4-chloro-3-(trifluoromethyl)phenyl]-1-(3-hydroxy-4-methylphenyl)urea]",10 µM
6,"Cc1ccc(NC(=O)Nc2cc(C(F)(F)F)cc(C(F)(F)F)c2)cc1O [Compound 6, 3-[3,5-bis(trifluoromethyl)phenyl]-1-(3-hydroxy-4-methylphenyl)urea]",5 µM
7,COc1cc(NC(=O)Nc2ccc(Cl)c(C(F)(F)F)c2)ccc1C [Compound 8],10 µM
8,COc1cc(NC(=O)Nc2cc(C(F)(F)F)cc(C(F)(F)F)c2)ccc1C [Compound 9],20 µM
9,"Cc1ccc(NC(=O)Nc2ccc(Cl)c(Cl)c2)cc1OCCN(C)C [Compound 11, 3-(3,4-dichlorophenyl)-1-{3-[2-(dimethylamino)ethoxy]-4-methylphenyl}urea]",20 µM
10,"Cc1ccc(NC(=O)Nc2ccc(Cl)c(C(F)(F)F)c2)cc1OCCN(C)C [Compound 12, 3-[4-chloro-3-(trifluoromethyl)phenyl]-1-{3-[2-(dimethylamino)ethoxy]-4-methylphenyl}urea]",10 µM
11,"Cc1ccc(NC(=O)Nc2cc(C(F)(F)F)cc(C(F)(F)F)c2)cc1OCCN(C)C [Compound 13, 3-[3,5-bis(trifluoromethyl)phenyl]-1-{3-[2-(dimethylamino)ethoxy]-4-methylphenyl}urea]",10 µM
12,"Cc1ccc(NC(=O)Nc2ccc(Cl)c(Cl)c2)cc1OCCN1CCOCC1 [Compound 15, 3-(3,4-dichlorophenyl)-1-{4-methyl-3-[2-(morpholin-4-yl)ethoxy]phenyl}urea]",10 µM
13,"Cc1ccc(NC(=O)Nc2ccc(Cl)c(C(F)(F)F)c2)cc1OCCN1CCOCC1 [Compound 16, 3-[4-chloro-3-(trifluoromethyl)phenyl]-1-{4-methyl-3-[2-(morpholin-4-yl)ethoxy]phenyl}urea]",10 µM
14,"Cc1ccc(NC(=O)Nc2cc(C(F)(F)F)cc(C(F)(F)F)c2)cc1OCCN1CCOCC1 [Compound 17, 3-[3,5-bis(trifluoromethyl)phenyl]-1-{4-methyl-3-[2-(morpholin-4-yl)ethoxy]phenyl}urea]",10 µM
15,"Cc1ccc(NC(=O)Nc2ccc(Cl)c(Cl)c2)cc1OCCN1CCNCC1 [Compound 23, 4-[2-(5-{[(3,4-dichlorophenyl)carbamoyl]amino}-2-methylphenoxy)ethyl]piperazine-1,4-diium dichloride]",10 µM
16,"Cc1ccc(NC(=O)Nc2cc(C(F)(F)F)cc(C(F)(F)F)c2)cc1OCCN1CCNCC1 [Compound 25, 4-{2-[5-({[3,5-bis(trifluoromethyl)phenyl]carbamoyl}amino)-2-methylphenoxy]ethyl}piperazine-1,4-diium dichloride]",10 µM
17,O=C(Nc1ccc(Cl)c(Cl)c1)Nc1ncccc1O [Compound 26],40 µM
18,O=C(Nc1ccc(Cl)c(C(F)(F)F)c1)Nc1ncccc1O [Compound 27],40 µM

# System: eIF2-GTP-Met-tRNAi ternary complex
# Experiment: Ternary complex activity (cell line not stated)
# Format: cell-based
# Conditions: not given
Molecule,"Maximum effect (Emax, fold over control)",Maximum effective dose Cmax
CN(C(=O)Nc1cc(C(F)(F)F)cc(C(F)(F)F)c1)c1cc(C(F)(F)F)cc(C(F)(F)F)c1,13 fold over control,10 µM
COc1cc(N(C)C(=O)Nc2cc(C(F)(F)F)cc(C(F)(F)F)c2)ccc1C,Inactive,–
Cc1ccc(N(C)C(=O)Nc2cc(C(F)(F)F)cc(C(F)(F)F)c2)cc1O,8.5 fold over control,80 µM

# System: eIF2-GTP-Met-tRNAi ternary complex
# Experiment: Ternary complex assay (dual luciferase, firefly/renilla ratio) in stable KLN-tTA/pBISA-DL(ATF-4) cells; HTS and hit confirmation
# Format: cell-based, mouse
# Conditions: anti-cancer agents at 20 μM, ternary complex assay
row,Molecule,Relative F-luc/R-luc Ratio (+/− SEM)
1,N=C(N)NC(=O)c1nc(Cl)c(N)nc1N [Amiloride],1.1 + 0.3
2,"Clc1ccccc1C(c1ccccc1)(c1ccccc1)n1ccnc1 [CLT, clotrimazole, reference compound]",6 + 1.1
3,CC[C@@]1(O)C(=O)OCc2c1cc1n(c2=O)Cc2cc3ccccc3nc2-1 [Camptothecin],1.3 + 0.3
4,COc1cc2c(c(OC)c1OC)-c1ccc(OC)c(=O)cc1[C@@H](NC(C)=O)CC2 [Colchicine],1.2 + 0.3
5,CC(C)Cn1c(=O)n(C)c(=O)c2[nH]cnc21 [Compound 3-isobutyl-1-methylxanthine],1.1 + 0.2
6,"O=c1[nH]cc(F)c(=O)[nH]1 [Compound 5-fluorouracil, 5-fluorouracil]",1 + 0.2
7,COc1ccc([C@@H]2Sc3ccccc3N(CCN(C)C)C(=O)[C@@H]2OC(C)=O)cc1 [Dilthiazem],1.4 + 0.4
8,CC(=O)O.NCC(=O)N[C@@H](Cc1c[nH]cn1)C(=O)O [Glycyl-1-histidyl acetate] (H-Gly-His-OH),1 + 0.1
9,CO[C@@]12[C@H](COC(N)=O)C3=C(C(=O)C(C)=C(N)C3=O)N1C[C@@H]1N[C@@H]12 [Mitomycin C],0.9 + 0.3
10,C=C1[C@@H](O)[C@@H]2O[C@]3(CC[C@H](/C=C/[C@@H](C)[C@@H]4CC(C)=C[C@@]5(O[C@H](C[C@@](C)(O)C(=O)O)CC[C@H]5O)O4)O3)CC[C@H]2O[C@@H]1[C@@H](O)C[C@H](C)[C@H]1O[C@@]2(CCCCO2)CC[C@H]1C [Okadaic acid],1 + 0.3
11,CCCCCCCCCC(=O)NC(CN1CCOCC1)C(O)c1ccccc1 (stereo not drawn) [Threo-1-phenyl],1.5 + 0.4
12,"COc1cc([C@@H]2c3cc4c(cc3[C@@H](O[C@@H]3O[C@@H]5CO[C@@H](C)O[C@H]5[C@H](O)[C@H]3O)[C@H]3COC(=O)[C@H]23)OCO4)cc(OC)c1O [etoposite, reference compound]",1 + 0.2
